Experimental data: PMC10221708, “Synthesis and Antimalarial Evaluation of Halogenated Analogues of Thiaplakortone A” (Marine Drugs, 2023)
Entries after “also recorded” stand apart in the source; their conditions may differ. Like-named read-outs stand apart in the source and are kept apart here.

What was measured:
[1] = system: Plasmodium falciparum 3D7; set-up: method as in PMID 24032556; conditions: cited from earlier work; for IC50: drug-sensitive strain, read-out: IC50 Pf (3D7)
[2] = system: Plasmodium falciparum Dd2; set-up: method as in PMID 24032556; conditions: cited from earlier work; for IC50: drug-resistant strain, read-out: IC50 Pf (Dd2)
[3] = system: Plasmodium falciparum 3D7; test: In vitro antimalarial image-based asexual assay, 3D7; assay type: cell-based; conditions: for IC50: Plasmodium falciparum, 3D7, chloroquine-sensitive strain, 72 h, n = 4, read-out: Pf 3D7 IC50 ± SD; for SI for 3D7: SI = HEK293 IC50/parasite IC50
Experimental: (§1) Plasmodium falciparum 3D7 and Dd2 parasites were cultured in RPMI1640 (Life Technologies, Camarillo, CA, USA) supplemented with 2.5 mg/mL Albumax II, 5% AB human serum, 25 mM HEPES and 0.37 mM hypoxanthine. Ring-stage parasites were treated with compounds following two rounds of sorbitol synchronisation as previously described. Artesunate, pyrimethamine and puromycin were incorporated as controls. Following incubation of assay plates for 72 h at 37 °C, and 5% CO2 and 5% O2, parasites were stained with 2-(4-amidinophenyl)-1H-indole-6-carboxamidine (DAPI) and imaged using an Opera QEHS confocal imaging system (PerkinElmer, Waltham, MA, USA). Images were analysed as previously described using Acapella spot detection software (PerkinElmer, Waltham, MA, USA).

[4] = system: Plasmodium falciparum Dd2; test: In vitro antimalarial image-based asexual assay, Dd2; assay type: cell-based; conditions: for IC50: Plasmodium falciparum, DD2, 72 h, n = 4, read-out: Pf Dd2 IC50 ± SD; for SI for Dd2: SI = HEK293 IC50/parasite IC50
Experimental: as §1

HEK293 cells [5] = test: In vitro cytotoxicity assay (Alamar Blue); assay type: cell-based, human; conditions: for IC50: HEK293, 72 h, n = 2
Experimental: Human embryonic kidney cells (HEK293) were maintained in DMEM (Life Technologies, Camarillo, CA, USA) containing 10% FBS (Hyclone™ ThermoFisher, Melbourne, Australia). Cytotoxicity testing was undertaken as previously described. In brief, 5 μL of test compound was added/well of black/clear tissue culture treated 384-well plates containing 3000 adherent HEK293 cells/well in 45 μL and incubated 72 h at 37 °C in 5% CO2. After incubation, the supernatant was removed and replaced with 40 μL of 10% Alamar Blue per well. Plates were incubated for 5–6 h and measured for fluorescence at 530 nm excitation and 595 nm emission. The % inhibition was calculated using 0.4% DMSO (no inhibition) and 5 μM puromycin (100% inhibition) data. IC50 values were obtained by plotting % inhibition against log dose using GraphPad Prism v.6 (San Diego, CA, USA), nonlinear regression with a variable slope plot.

HEK293 cells [6] = system: HEK293 cells; set-up: method as in PMID 24032556; conditions: cited from earlier work
[7] = chloroquine, pyrimethamine and mefloquine drug-resistant strain, mean ± SD
[8] = human embryonic kidney cells, mean ± SD
[9] = controls, drug-resistant strain
[10] = Homo sapiens, controls, read-out: HEK293 IC50 ± SD
[11] = N-Boc group of compound 7 removed
[12] = bromine at C-2 replaced with iodine

SMILES	IC50 ([3]; mean ± SD) [nM]	IC50 [4, 7] [nM]	SI for 3D7 [3]	SI for Dd2 [4]	IC50 (HEK293 cells [5]; [8]) [nM]	other results
CN[C@@H](Cc1c[nH]c2c1C(=O)C1=C(NC=CS1(=O)=O)C2=O)C(=O)O [Thiaplakortone C]	–	–	–	–	–	IC50 [1]: 310 nM; IC50 [2]: 170 nM
CC(C)(C)OC(=O)NCCc1c[nH]c2c1C(=O)C1=C(NC=CS1(=O)=O)C2=O [Compound 2, Boc-protected thiaplakortone A]	227 ± 44	86 ± 12	24	64	5530 ± 21	–
NCCc1c[nH]c2c1C(=O)C1=C(NC=C(Br)S1(=O)=O)C2=O [Compound 5]	559 ± 145	58 ± 16	>143	>1379	> 80000	cytotoxicity against HEK293 cells observed at 80 μM (HEK293 cells [5]; 80 μM (top screening concentration)): minimal cytotoxicity; also recorded: minimal toxicity
COc1ccc(C[C@H](N)C(=O)N[C@H]2[C@@H](O)[C@H](n3cnc4c(N(C)C)ncnc43)O[C@@H]2CO)cc1 [Puromycin, reference compound]	–	–	33	61	–	IC50 ([3]; controls): 31.9 ± 16.2 nM; IC50 [4, 9]: 17 ± 3.96 nM; IC50 (HEK293 cells [5]; [10]): 1040 ± 66 nM
NCCc1c[nH]c2c1C(=O)C1=C(NCCS1(=O)=O)C2=O [Thiaplakortone B]	–	–	–	–	–	IC50 [1]: 650 nM; IC50 [2]: 92 nM
CC(C)(C)OC(=O)NCCc1c[nH]c2c1C(=O)C1=C(NC=C(Br)S1(=O)=O)C2=O [Compound 3]	3520 ± 350	583 ± 94	>23	>137	> 80000	–
CCc1nc(N)nc(N)c1-c1ccc(Cl)cc1 [Pyrimethamine, reference compound]	–	–	>10,666	–	–	IC50 ([3]; controls): 3.75 ± 0.3 nM; IC50 [4, 9]: > 40000 nM; IC50 (HEK293 cells [5]; [10]): > 40000 nM
C[C@H]1[C@H](OC(=O)CCC(=O)O)O[C@@H]2O[C@@]3(C)CC[C@H]4[C@H](C)CC[C@@H]1[C@@]24OO3 [Artesunate, reference compound]	–	–	>8163	>10,526	–	IC50 ([3]; controls): 0.49 ± 0.2 nM; IC50 [4, 9]: 0.38 ± 0.01 nM; IC50 (HEK293 cells [5]; [10]): > 4000 nM
NCCc1c[nH]c2c1C(=O)C1=C(NC=CS1(=O)=O)C2=O [Compound 1, thiaplakortone A]	61 ± 9	8 ± 1	22	150	1320 ± 92	selectivity index against 3D7 ([1]; HEK293 vs 3D7): 76; IC50 [1]: 51 nM; selectivity index against Dd2 ([2]; HEK293 vs Dd2): 591; IC50 [2]: 6.6 nM; cytotoxicity against HEK293 cells (HEK293 cells [6]): low cytotoxicity
CC(C)(C)OC(=O)NCCc1c[nH]c2c1C(=O)C1=C(NC=C(I)S1(=O)=O)C2=O [Compound 7]	5620 ± 383	1190 ± 270	>14	>67	> 80000	–
NCCc1c(Br)[nH]c2c1C(=O)C1=C(NC=C(Br)S1(=O)=O)C2=O [Compound 6]	1650 ± 194	487 ± 98	>48	>164	> 80000	–
CN[C@@H](Cc1c[nH]c2c1C(=O)C1=C(C2=O)S(=O)(=O)C=CN1)C(=O)O [Thiaplakortone D]	–	–	–	–	–	IC50 [1]: 280 nM; IC50 [2]: 160 nM
CC(C)(C)OC(=O)NCCc1c(Br)[nH]c2c1C(=O)C1=C(NC=C(Br)S1(=O)=O)C2=O [Compound 4]	1370 ± 117	2060 ± 192	>58	>39	> 80000	fold decrease in antimalarial activity against 3D7 upon removal of the Boc group ([3]; compound 4 after Boc removal): 1.2 fold

Second part, led by results:

IC50 ([3]; mean ± SD) [nM]	IC50 [4, 7] [nM]	SMILES	SI for 3D7 [3]	SI for Dd2 [4]	IC50 (HEK293 cells [5]; [8]) [nM]	other results
1620 ± 154	659 ± 119	CC(C)(C)OC(=O)NCCc1c(I)[nH]c2c1C(=O)C1=C(NC=C(I)S1(=O)=O)C2=O [Compound 8]	>49	>121	> 80000	–
2220 ± 248	317 ± 8	NCCc1c[nH]c2c1C(=O)C1=C(NC=C(I)S1(=O)=O)C2=O [Compound 9]	>36	>252	> 80000	fold increase of antimalarial activity against 3D7 versus compound 7 [3, 11]: 2.5 fold; fold reduction of antimalarial activity against 3D7 versus compound 5 [3, 12]: 3.9 fold; fold increase of antimalarial activity against Dd2 versus compound 7 [4, 11]: 3.7 fold; fold reduction of antimalarial activity against Dd2 versus compound 5 [4, 12]: 5.5 fold
1680 ± 316	725 ± 244	NCCc1c(I)[nH]c2c1C(=O)C1=C(NC=C(I)S1(=O)=O)C2=O [Compound 10]	>47	>110	> 80000	–
6800 ± 2440	4550 ± 1150	NCCc1c(C(F)(F)F)[nH]c2c1C(=O)C1=C(NC=C(C(F)(F)F)S1(=O)=O)C2=O [Compound 11]	>12	>18	> 80000	–
